Results: ChEMBL document CHEMBL1157496, “Design, synthesis, and evaluation of a novel 4-aminomethyl-4-fluoropiperidine as a T-type Ca2+ channel antagonist” (J Med Chem, 2008)

Columns and labels:
[1] = target: Voltage-dependent T-type calcium channel subunit alpha-1I (Homo sapiens) (UniProt Q9P0X4); assay: Antagonist activity at T type calcium channel Cav3.3 alpha1i at -60 mV by FLIPR assay; type: functional
[2] = target: Voltage-dependent T-type calcium channel subunit alpha-1I (Homo sapiens) (UniProt Q9P0X4); assay: Antagonist activity at T type calcium channel Cav3.3 alpha1i at -20 mV by FLIPR assay; type: functional
[3] = target: Voltage-gated inwardly rectifying potassium channel KCNH2 (Homo sapiens, UniProt Q12809)
[4] = Binding affinity to L type calcium channel by binding assay
Rattus norvegicus [5] = species on record: Rattus norvegicus; assay: Decrease in seizure time in Wistar albino Glaxo rat model of absence epilepsy after 4 hrs; type: functional
[6] = Antagonist activity at sigma receptor in guinea pig vas deferens at 30 uM; type: functional, Cavia porcellus; set-up: scale not given: the % may be the effect or the level left
[7] = target: Voltage-dependent T-type calcium channel subunit alpha-1H (Homo sapiens) (UniProt O95180); assay: Antagonist activity at T type calcium channel Cav3.2 alpha-1H at -100 mV by voltage-clamp electrophysiology assay; type: functional
[8] = Tmax in monkey at 2 mg/kg, po; type: ADME, organism-based, Macaca mulatta; set-up: dose 2 mg/kg, route oral; details: rhesus monkey, in vivo
[9] = target: Sodium channel protein type 5 subunit alpha (Homo sapiens, UniProt Q14524); assay: Inhibition of sodium channel Nav1.5 by voltage-clamp method
[10] = Antagonist activity at T type calcium channel at -100 mV by voltage-clamp electrophysiology assay; type: functional
[11] = Volume of distribution at steady state in monkey at 0.5 mg/kg, iv; type: ADME, organism-based, Macaca mulatta; set-up: dose 0.5 mg/kg, route intravenous; details: rhesus monkey, in vivo, read-out: Vdss
[12] = Ratio of drug level in brain to plasma in rat after 9 hrs; type: ADME, cell-free
[13] = Cmax in monkey at 2 mg/kg, po; type: ADME, organism-based, Macaca mulatta; set-up: dose 2 mg/kg, route oral; details: rhesus monkey, in vivo
[14] = AUC (0 to 4 hrs) in Wistar albino Glaxo rat model of absence epilepsy at 3 mg/kg; type: ADME, organism-based; set-up: time < 4 hr, dose 3 mg/kg; details: in vivo
Rattus norvegicus [15] = species on record: Rattus norvegicus; assay: Decrease in tremor activity in harmaline-induced rat model; type: functional, organism-based
[16] = Drug level in dog plasma at 4.30 mg/kg, iv measured at end of 60 mins infusion; type: ADME, organism-based, Canis lupus familiaris; set-up: dose 4.3 mg/kg, route intravenous; details: 4.3 mg/kg, read-out: Drug uptake
[17] = target: Voltage-dependent T-type calcium channel subunit alpha-1G (Homo sapiens) (UniProt O43497); assay: Antagonist activity at T type calcium channel Cav3.1 alpha-1G at -100 mV by voltage-clamp electrophysiology assay; type: functional
[18] = Protein binding in dog plasma; type: ADME, cell-free, Canis lupus familiaris; details: read-out: PPB
[19] = Half life in monkey at 0.5 mg/kg, iv; type: ADME, organism-based, Macaca mulatta; set-up: dose 0.5 mg/kg, route intravenous; details: rhesus monkey, in vivo
[20] = Cmax in Wistar albino Glaxo rat model of absence epilepsy at 10 mg/kg; type: ADME, organism-based; set-up: dose 10 mg/kg; details: in vivo
Canis familiaris [21] = assay: Toxicity in dog assessed as effect on plasma electrolytes at 20 mg/kg, po after 3 hrs; type: organism-based, Canis lupus familiaris; set-up: dose 20 mg/kg, route oral; details: in vivo
Canis familiaris [22] = assay: Toxicity in dog assessed as increase in heart rate at 20 mg/kg, po after 3 hrs; type: organism-based, Canis lupus familiaris; set-up: dose 20 mg/kg, route oral; details: in vivo
[23] = Inhibition of sodium channel site 2 by binding assay
[24] = Half life in dog at 0.5 mg/kg, iv; type: ADME, organism-based, Canis lupus familiaris; set-up: dose 0.5 mg/kg, route intravenous; details: in vivo
[25] = Protein binding in monkey plasma; type: ADME, cell-free, Macaca mulatta; details: rhesus monkey, read-out: PPB (converted)
[26] = Clearance in monkey at 0.5 mg/kg, iv; type: ADME, organism-based, Macaca mulatta; set-up: dose 0.5 mg/kg, route intravenous; details: rhesus monkey, in vivo
[27] = Cmax in Wistar albino Glaxo rat model of absence epilepsy at 3 mg/kg; type: ADME, organism-based; set-up: dose 3 mg/kg; details: in vivo
[28] = Tmax in dog at 1 mg/kg, po; type: ADME, organism-based, Canis lupus familiaris; set-up: dose 1 mg/kg, route oral; details: in vivo
[29] = Oral bioavailability in dog at 1 mg/kg; type: ADME, organism-based, Canis lupus familiaris; details: in vivo
[30] = AUC (0 to 4 hrs) in Wistar albino Glaxo rat model of absence epilepsy at 10 mg/kg; type: ADME, organism-based; set-up: time < 4 hr, dose 10 mg/kg; details: in vivo
[31] = AUC (0 to 4 hrs) in Wistar albino Glaxo rat model of absence epilepsy at 1 mg/kg; type: ADME, organism-based; set-up: time < 4 hr, dose 1 mg/kg; details: in vivo
[32] = Volume of distribution at steady state in dog at 0.5 mg/kg, iv; type: ADME, organism-based, Canis lupus familiaris; set-up: dose 0.5 mg/kg, route intravenous; details: in vivo, read-out: Vdss
Canis familiaris [33] = assay: Toxicity in dog assessed as effect on urine flow at 20 mg/kg, po after 3 hrs; type: organism-based, Canis lupus familiaris; set-up: dose 20 mg/kg, route oral; details: in vivo
[34] = Clearance in dog at 0.5 mg/kg, iv; type: ADME, organism-based, Canis lupus familiaris; set-up: dose 0.5 mg/kg, route intravenous; details: in vivo
[35] = Binding affinity to sigma receptor
[36] = Drug level in dog plasma at 1.29 mg/kg, iv measured at end of 60 mins infusion; type: ADME, organism-based, Canis lupus familiaris; set-up: dose 1.29 mg/kg, route intravenous; details: read-out: Drug uptake
Canis familiaris [37] = assay: Toxicity in dog assessed as effect on urinary excretion of sodium and potassium at 20 mg/kg, po after 3 hrs; type: organism-based, Canis lupus familiaris, Urine; set-up: dose 20 mg/kg, route oral; details: in vivo
[38] = Cmax in Wistar albino Glaxo rat model of absence epilepsy at 1 mg/kg; type: ADME, organism-based; set-up: dose 1 mg/kg; details: in vivo
[39] = Oral bioavailability in monkey at 2 mg/kg; type: ADME, organism-based, Macaca mulatta; details: rhesus monkey, in vivo
[40] = Clearance in rat at 1 mg/kg, iv; type: ADME, organism-based; set-up: dose 1 mg/kg, route intravenous; details: in vivo
[41] = Oral bioavailability in rat at 10 mg/kg; type: ADME, organism-based; details: in vivo
Canis familiaris [42] = assay: Toxicity in dog assessed as effect on ECG intervals at 20 mg/kg, po after 3 hrs; type: organism-based, Canis lupus familiaris; set-up: dose 20 mg/kg, route oral; details: in vivo
[43] = Volume of distribution at steady state in rat at 1 mg/kg, iv; type: ADME, organism-based; set-up: dose 1 mg/kg, route intravenous; details: in vivo, read-out: Vdss
[44] = AUC (0 to 24 hrs) in dog at 1 mg/kg, po; type: ADME, organism-based, Canis lupus familiaris; set-up: time < 24 hr, dose 1 mg/kg, route oral; details: plasma
[45] = Ratio of drug level in cerebrospinal fluid to plasma in rat after 9 hrs; type: ADME, CSF/Plasma
[46] = Protein binding in rat plasma; type: ADME, cell-free; details: read-out: PPB (converted)
[47] = AUC (0 to 24 hrs) in monkey at 2 mg/kg, po; type: ADME, organism-based, Macaca mulatta; set-up: time < 24 hr, dose 2 mg/kg, route oral; details: rhesus monkey, plasma
[48] = AUC (0 to 24 hrs) in rat at 10 mg/kg, po; type: ADME, organism-based; set-up: time < 24 hr, dose 10 mg/kg, route oral; details: plasma
[49] = Cmax in dog at 1 mg/kg, po; type: ADME, organism-based, Canis lupus familiaris; set-up: dose 1 mg/kg, route oral; details: in vivo
Canis familiaris [50] = assay: Toxicity in dog assessed as effect on glomerular filtration at 20 mg/kg, po after 3 hrs; type: organism-based, Canis lupus familiaris; set-up: dose 20 mg/kg, route oral; details: in vivo
Canis familiaris [51] = assay: Drug level in dog plasma at 20 mg/kg, po; type: ADME, organism-based, Canis lupus familiaris; set-up: dose 20 mg/kg, route oral; details: in vivo, read-out: Drug uptake
[52] = Cmax in rat at 10 mg/kg, po; type: ADME, organism-based; set-up: dose 10 mg/kg, route oral; details: in vivo
[53] = Antagonist activity at T type calcium channel at -80 mV by voltage-clamp electrophysiology assay; type: functional
[54] = target: Voltage-dependent N-type calcium channel subunit alpha-1B (Homo sapiens) (UniProt Q00975); assay: Inhibition of calcium channel Cav2.2 at 10 uM by high throughput assay
Canis familiaris [55] = assay: Toxicity in dog assessed as effect on blood pressure at 20 mg/kg, po after 3 hrs; type: organism-based, Canis lupus familiaris; set-up: dose 20 mg/kg, route oral; details: in vivo
[56] = Tmax in rat at 10 mg/kg, po; type: ADME, organism-based; set-up: dose 10 mg/kg, route oral; details: in vivo
[57] = Half life in rat at 1 mg/kg, iv; type: ADME, organism-based; set-up: dose 1 mg/kg, route intravenous; details: in vivo
Canis familiaris [58] = assay: Toxicity in dog assessed as effect on renal plasma flow at 20 mg/kg, po after 3 hrs; type: organism-based, Canis lupus familiaris; set-up: dose 20 mg/kg, route oral; details: in vivo

Chain of Voltage-dependent T-type calcium channel subunit alpha-1I (Homo sapiens) (Q9P0X4 whole entry): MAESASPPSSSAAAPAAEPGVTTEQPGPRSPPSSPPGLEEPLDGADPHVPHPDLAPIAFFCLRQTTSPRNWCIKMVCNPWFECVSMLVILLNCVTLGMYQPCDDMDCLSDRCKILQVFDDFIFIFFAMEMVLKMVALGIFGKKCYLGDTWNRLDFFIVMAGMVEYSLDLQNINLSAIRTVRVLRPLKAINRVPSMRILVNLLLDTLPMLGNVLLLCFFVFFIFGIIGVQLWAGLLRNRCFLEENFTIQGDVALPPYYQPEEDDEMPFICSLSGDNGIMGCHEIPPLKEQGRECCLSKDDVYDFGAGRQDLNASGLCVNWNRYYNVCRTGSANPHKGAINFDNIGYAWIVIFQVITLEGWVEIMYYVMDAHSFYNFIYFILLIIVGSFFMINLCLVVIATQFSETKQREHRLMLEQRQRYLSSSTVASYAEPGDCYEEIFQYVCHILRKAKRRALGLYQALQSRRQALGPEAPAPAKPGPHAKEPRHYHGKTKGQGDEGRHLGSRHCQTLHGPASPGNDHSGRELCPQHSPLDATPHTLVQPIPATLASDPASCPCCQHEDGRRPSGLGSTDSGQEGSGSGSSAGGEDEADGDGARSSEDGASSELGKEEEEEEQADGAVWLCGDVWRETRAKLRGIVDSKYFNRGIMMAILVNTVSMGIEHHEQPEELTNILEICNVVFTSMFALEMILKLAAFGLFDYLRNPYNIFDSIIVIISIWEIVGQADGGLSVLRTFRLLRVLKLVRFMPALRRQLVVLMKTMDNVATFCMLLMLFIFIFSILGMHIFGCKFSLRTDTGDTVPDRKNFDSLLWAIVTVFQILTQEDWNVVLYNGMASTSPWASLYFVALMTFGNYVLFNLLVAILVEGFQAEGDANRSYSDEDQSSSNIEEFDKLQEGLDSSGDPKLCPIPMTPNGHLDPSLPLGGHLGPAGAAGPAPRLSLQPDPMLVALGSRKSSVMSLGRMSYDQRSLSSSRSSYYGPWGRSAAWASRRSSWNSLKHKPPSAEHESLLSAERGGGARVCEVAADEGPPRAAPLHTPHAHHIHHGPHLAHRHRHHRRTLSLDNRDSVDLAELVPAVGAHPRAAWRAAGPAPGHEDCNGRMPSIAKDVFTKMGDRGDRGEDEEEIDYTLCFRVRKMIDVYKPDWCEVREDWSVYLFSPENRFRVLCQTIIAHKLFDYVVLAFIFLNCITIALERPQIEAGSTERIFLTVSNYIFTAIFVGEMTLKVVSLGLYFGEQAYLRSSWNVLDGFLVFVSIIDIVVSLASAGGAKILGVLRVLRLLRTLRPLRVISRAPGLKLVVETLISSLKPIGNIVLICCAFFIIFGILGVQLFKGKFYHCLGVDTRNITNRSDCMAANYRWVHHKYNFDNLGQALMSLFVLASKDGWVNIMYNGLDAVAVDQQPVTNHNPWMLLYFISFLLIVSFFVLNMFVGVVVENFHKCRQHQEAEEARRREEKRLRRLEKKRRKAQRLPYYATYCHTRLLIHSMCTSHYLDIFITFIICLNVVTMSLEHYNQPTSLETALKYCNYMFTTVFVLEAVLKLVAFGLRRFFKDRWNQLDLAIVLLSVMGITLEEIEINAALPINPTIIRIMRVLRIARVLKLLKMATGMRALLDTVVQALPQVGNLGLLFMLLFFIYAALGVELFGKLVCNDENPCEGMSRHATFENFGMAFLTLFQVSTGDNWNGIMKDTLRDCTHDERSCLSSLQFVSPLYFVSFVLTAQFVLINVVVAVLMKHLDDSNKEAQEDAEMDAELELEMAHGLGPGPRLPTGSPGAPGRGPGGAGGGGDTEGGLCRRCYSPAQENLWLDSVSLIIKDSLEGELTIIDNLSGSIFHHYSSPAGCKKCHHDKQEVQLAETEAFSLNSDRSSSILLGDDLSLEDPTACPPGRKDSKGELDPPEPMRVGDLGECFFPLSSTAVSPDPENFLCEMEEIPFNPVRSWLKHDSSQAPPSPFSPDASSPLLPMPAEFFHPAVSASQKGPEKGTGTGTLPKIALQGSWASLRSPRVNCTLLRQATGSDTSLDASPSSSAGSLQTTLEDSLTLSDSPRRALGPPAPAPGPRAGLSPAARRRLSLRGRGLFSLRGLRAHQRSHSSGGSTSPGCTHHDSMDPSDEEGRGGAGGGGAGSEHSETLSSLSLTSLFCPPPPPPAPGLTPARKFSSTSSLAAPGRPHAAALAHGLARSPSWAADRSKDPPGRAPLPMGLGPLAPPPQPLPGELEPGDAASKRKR
Chain of Voltage-dependent N-type calcium channel subunit alpha-1B (Homo sapiens) (Q00975 whole entry, looked up): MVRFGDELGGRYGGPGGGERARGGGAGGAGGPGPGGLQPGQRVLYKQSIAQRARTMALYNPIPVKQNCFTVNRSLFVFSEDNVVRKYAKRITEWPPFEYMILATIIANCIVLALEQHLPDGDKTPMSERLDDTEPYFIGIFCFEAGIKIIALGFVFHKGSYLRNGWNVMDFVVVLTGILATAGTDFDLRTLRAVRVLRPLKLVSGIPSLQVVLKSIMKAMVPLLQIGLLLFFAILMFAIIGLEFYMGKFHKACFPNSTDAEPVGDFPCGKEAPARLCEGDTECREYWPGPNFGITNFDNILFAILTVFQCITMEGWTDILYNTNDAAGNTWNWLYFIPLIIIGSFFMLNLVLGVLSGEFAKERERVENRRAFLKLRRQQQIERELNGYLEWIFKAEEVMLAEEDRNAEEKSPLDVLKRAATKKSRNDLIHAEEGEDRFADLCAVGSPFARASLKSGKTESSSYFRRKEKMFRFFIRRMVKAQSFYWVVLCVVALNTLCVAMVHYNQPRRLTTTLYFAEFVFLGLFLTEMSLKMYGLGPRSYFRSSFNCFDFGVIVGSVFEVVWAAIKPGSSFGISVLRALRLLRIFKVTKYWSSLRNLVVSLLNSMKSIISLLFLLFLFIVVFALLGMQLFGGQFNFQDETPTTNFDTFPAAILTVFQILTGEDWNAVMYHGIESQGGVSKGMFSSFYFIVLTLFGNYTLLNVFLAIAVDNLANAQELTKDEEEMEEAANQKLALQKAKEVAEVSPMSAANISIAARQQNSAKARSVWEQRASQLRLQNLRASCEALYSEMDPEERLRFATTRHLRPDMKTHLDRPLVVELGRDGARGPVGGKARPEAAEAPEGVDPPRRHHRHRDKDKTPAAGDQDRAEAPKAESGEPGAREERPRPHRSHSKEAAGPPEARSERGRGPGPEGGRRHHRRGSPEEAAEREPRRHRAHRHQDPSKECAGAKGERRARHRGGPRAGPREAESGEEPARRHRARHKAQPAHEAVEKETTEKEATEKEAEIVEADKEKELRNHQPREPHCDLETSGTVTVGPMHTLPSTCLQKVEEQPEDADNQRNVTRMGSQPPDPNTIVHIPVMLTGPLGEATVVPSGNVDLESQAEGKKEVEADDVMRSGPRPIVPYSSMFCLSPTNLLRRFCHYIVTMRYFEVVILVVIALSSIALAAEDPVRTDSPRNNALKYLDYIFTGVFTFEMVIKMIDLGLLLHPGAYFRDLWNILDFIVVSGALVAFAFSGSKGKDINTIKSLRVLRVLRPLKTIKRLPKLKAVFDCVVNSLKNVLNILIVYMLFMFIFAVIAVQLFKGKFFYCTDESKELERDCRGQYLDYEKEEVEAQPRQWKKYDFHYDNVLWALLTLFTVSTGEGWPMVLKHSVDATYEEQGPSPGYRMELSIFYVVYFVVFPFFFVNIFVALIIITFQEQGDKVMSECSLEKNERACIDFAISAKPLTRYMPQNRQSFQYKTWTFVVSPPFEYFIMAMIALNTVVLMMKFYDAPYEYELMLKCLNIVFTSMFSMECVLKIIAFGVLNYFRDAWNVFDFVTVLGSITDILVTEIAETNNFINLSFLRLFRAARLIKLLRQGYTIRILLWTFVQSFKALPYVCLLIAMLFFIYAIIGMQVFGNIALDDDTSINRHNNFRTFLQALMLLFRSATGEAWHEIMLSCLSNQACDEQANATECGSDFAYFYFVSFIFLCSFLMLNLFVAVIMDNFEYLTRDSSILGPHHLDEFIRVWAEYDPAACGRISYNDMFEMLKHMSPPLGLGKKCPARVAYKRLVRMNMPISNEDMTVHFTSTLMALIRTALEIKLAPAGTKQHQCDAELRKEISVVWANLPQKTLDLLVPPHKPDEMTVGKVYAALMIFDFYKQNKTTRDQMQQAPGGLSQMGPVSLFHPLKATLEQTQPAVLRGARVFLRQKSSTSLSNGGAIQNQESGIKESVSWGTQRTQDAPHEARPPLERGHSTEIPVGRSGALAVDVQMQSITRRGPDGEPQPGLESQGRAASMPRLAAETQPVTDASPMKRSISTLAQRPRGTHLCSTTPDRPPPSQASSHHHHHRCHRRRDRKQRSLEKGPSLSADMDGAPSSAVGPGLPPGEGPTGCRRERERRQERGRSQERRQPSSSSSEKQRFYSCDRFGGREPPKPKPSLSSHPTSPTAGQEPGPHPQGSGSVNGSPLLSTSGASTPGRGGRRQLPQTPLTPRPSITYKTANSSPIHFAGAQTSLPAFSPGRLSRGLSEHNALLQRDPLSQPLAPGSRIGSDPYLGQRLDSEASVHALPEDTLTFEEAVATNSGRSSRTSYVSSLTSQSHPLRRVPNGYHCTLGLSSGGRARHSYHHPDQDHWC

In the case of `CC1(C)CC(CN2CCC(F)(CNC(=O)c3cc(Cl)cc(Cl)c3)CC2)CCO1` (racemic), the Activity [1] is reported as 333 nM and the Activity [2] is reported as 145 nM.

Work on `CC(C)(C)CCN1CCC(CNC(=O)c2cc(Cl)cc(Cl)c2)CC1` yielded an Activity [1] of 98 nM.

For `CC(C)(C)CCN1CCC(F)(CNC(=O)c2cc(Cl)cc(Cl)c2)CC1`, the Activity [1] was 64 nM, the IC50 [3] was 2220 nM and the IC50 [4] was 940 nM. It also gave an Activity [2] of 66 nM.

For `CC1(C)C[C@H](CN2CCC(F)(CNC(=O)c3cc(Cl)cc(Cl)c3)CC2)CCO1`, the Activity [1] was 297 nM, the “inhibition (INH)” value (Rattus norvegicus [5]) was 63% and the Activity [2] was 94 nM.

In the case of `CC1(C)C[C@@H](CN2CCC(F)(CNC(=O)c3cc(Cl)cc(Cl)c3)CC2)CCO1`, the Activity [6] is reported as 30%, the Activity [7] is reported as 196 nM and the Tmax [8] is reported as 1.5 h. The IC50 [9] was 84000 nM, the Activity [10] was 84 nM and the Vd [11] was 3.8 L/kg. It also gave a Kp at 9 h [12] of 6, an Activity [1] of 181 nM and a Cmax [13] of 580 nM. For the same compound, the AUC(0-t) at 4 h [14] was 0.54 µM·h, the Activity (Rattus norvegicus [15]) was “Dose-dependent effect” and the concentration at 1 h [16] was 4600 nM. For the same compound, the Activity [17] was 93 nM, the fraction unbound [18] was 0.01 and the half-life [19] was 3.3 h. The Cmax [20] was 1000 nM, the Activity (Canis familiaris [21]) was “Non-toxic” and the Activity (Canis familiaris [22]) was “Toxic”. It also gave an IC50 [23] of 1900 nM, a half-life [24] of 4.7 h and a fraction unbound [25] of 0.025. The “inhibition (INH)” value (Rattus norvegicus [5]) was 81%, the clearance [26] was 13.6 mL/min/kg and the Cmax [27] was 190 nM. It also gave a Tmax [28] of 3.1 h, a bioavailability [29] of 87% and an AUC(0-t) at 4 h [30] of 2.96 µM·h. It also gave an AUC(0-t) at 4 h [31] of 0.15 µM·h, a Vd [32] of 1 L/kg and an Activity [2] of 84 nM. The Activity (Canis familiaris [33]) was “Non-toxic”, the clearance [34] was 2.3 mL/min/kg and the Ki [35] was less than 100 nM. The concentration at 1 h [36] was 1500 nM, the Activity (Canis familiaris [37]) was “Non-toxic” and the Cmax [38] was 60 nM. The bioavailability [39] was 44%, the clearance [40] was 75 mL/min/kg and the bioavailability [41] was 36%. For the same compound, the Activity (Canis familiaris [42]) was “Non-toxic”, the Vd [43] was 10 L/kg and the AUC(0-t) at 24 h [44] was 15.8 µM·h. For the same compound, the Kp at 9 h [45] was 2.8, the fraction unbound [46] was 0.057 and the AUC(0-t) at 24 h [47] was 3.2 µM·h. For the same compound, the AUC(0-t) at 24 h [48] was 1.94 µM·h, the Cmax [49] was 2180 nM and the Activity (Canis familiaris [50]) was “Non-toxic”. The concentration (Canis familiaris [51]) was 34500 nM, the Cmax [52] was 480 nM and the Activity [53] was 115 nM. The inhibition [54] was 18%, the Activity (Canis familiaris [55]) was “Non-toxic” and the Tmax [56] was 0.7 h. The half-life [57] was 1.8 h and the Activity (Canis familiaris [58]) was “Non-toxic”.
